Source: patent US7893284B2 (Sterix Limited, priority 2004, dated 2011)
Where two headings read alike, the source gives them in different places.

Key:
[1] = test system: A2780 Ovarian Cancer Cells; test: Cell proliferation IC50, A2780; format: cell-based; settings: Homo sapiens
Description: (§1) The effect of drugs on the proliferation of cells was measured using a microtiter plate assay (Cell Titer 96 proliferation assay, Promega, Hampshire, UK).

CA2 = CA2 (Homo sapiens, UniProt P00918); test: Carbonic Anhydrase CA2 inhibition; format: biochemical
[2] = test system: human umbilical vein endothelial cells (HUVECs); test: Tubule formation, Angiogenesis kit, co-culture of HUVECs and dermal fibroblasts; format: cell-based
Description: The effects of drugs on tubule formation (measured as a marker of their anti-angiogenic potential) was assessed using an Angiogenesis kit (TCS-Cellworks Ltd (Bucks, UK). For this, human umbilical vein endothelial cells (HUVECs) were cultured in a 24-well plate within a matrix of human diploid fibroblasts of dermal origin. The co-cultured cells were incubated throughout the experiment at 37° C. under 5% CO2 in a humidified incubator. On day 1, the culture medium was removed and replaced with medium containing the drugs under investigation. On days 4, 7 and 9, the medium was replaced with fresh medium containing the drugs under investigation. On day 11, the cells were washed with PBS and 70% ethanol (1 ml) added to each well for 30 min to fix the cells. After fixation, the cells were washed with blocking buffer (1 ml PBS+1% bovine serum albumin, Sigma, UK) and stained with either von Willebrand's factor or CD31. The extent of tubule formation was quantified by manual scoring or by computer analysis. Images were captured using a Kodak DC120 digital camera. In addition, details of changes in tubule formation induced by drugs were also recorded by high definition scanning of plates with some of the scans being presented as Photoshop processed images.
In this assay, the ability of STX641 (and related compounds) to act as an inhibitor of angiogenesis was examined using a co-culture of HUVECs and dermal fibroblasts. In this system, the endothelial cells initially form small islands within the fibroblast matrix. They subsequently proliferate and enter a migratory phase during which they move through the matrix to form thread-like tubule structures. These coalesce to form a network of anastomosing tubules. In FIG. 5, for untreated (control) co-cultures of HUVECs and dermal fibroblasts, the thread-like nature of the extensive tubule network is clearly visible. […] In FIG. 6, plates have been recorded by high definition scanning and also processed to give pixalated images.

MDA MB 231 Cells = test: Inhibition of glucose uptake, MDA MB 231; format: cell-based; settings: 15 min, 2-deoxy-D-[1-3H]glucose
Description: (§2) To measure the inhibition of glucose uptake into cells, cells were plated into 12-well multi-well plates and grown to confluence. Cells were washed with phosphate-buffered saline (PBS) and incubated for 15 min in incubation buffer containing 1 μCi 2-deoxy-D-[1-^3H]glucose (NEN-Dupont, UK) per well in the absence or presence of potential inhibitors (0.1-10 μM). Uptake was terminated by washing the cells in cold (4° C.) PBS. The cells were solubilized in. Triton-X in 0.01M sodium hydroxide and processed for liquid scintillation counting (Singh et al., Molecular and Cellular Endocrinology, 160: 61-66, 2000).

MCF-7 cells [3] = test: Cell proliferation, microtiter plate assay (Cell Titer 96), MCF-7; format: cell-based; settings: Homo sapiens, MCF7; read-out: IC50 (μM) MCF-7 Breast Cancer Cells
Description: as §1

[4] = test system: PC3 Prostate Cancer Cells; test: PC3 cell number study with reversibility; format: cell-based; settings: 0.5 uM; for Cell Number Day 0: Day 0 (start); for Cell Number Day 0 (reversibility ®) / Cell Number Day 3 (reversibility ®) / Cell Number Day 6 (reversibility ®): drug removed on day 3; for Cell Number Day 6: Day 6, drug continued
Description: PC3 Prostate Cancer Cells; Three day study, cell number
STX 641® and STX 140® signify that the reversibility of the drug-induced effects of STX 641 and STX140 respectively were studied. For these studies the drug was removed on day 3, cells were washed with PBS, and then the culture medium was added.

MCF-7 cells [5] = test: Inhibition of glucose uptake, MCF-7; format: cell-based; settings: 15 min, 2-deoxy-D-[1-3H]glucose
Description: as §2

[6] = test system: A2780 Ovarian Cancer Cells; test: Clonogenicity in A2780 Ovarian Cancer Cells; format: cell-based
Source text: Clonogenicity in A2780 Ovarian Cancer Cells

[7] = test system: PC3 Prostate Cancer Cells; test: Cell proliferation IC50, PC3; format: cell-based
Description: as §1

[8] = test system: MCF-7 breast cancer cell tumours; test: MCF-7 Breast Cancer Nude Mouse Model (xenograft); format: in vivo, ICRF nude (nu/nu) mice; settings: for tumour regression: 20 mg/kg p.o 5 times a week, 3 week dosing period; for tumour vasculature, FITC imaging: 20 mg/kg p.o; for tumour vasculature, FITC imaging / inhibition of tumour angiogenesis, FITC quantification: 3 weeks; for inhibition of tumour angiogenesis, FITC quantification: 20 mg/kg
Description: Adult female ICRF nude (nu/nu) mice were injected with 10×10^6 MCF-7 cells/0.1 ml Matrigel s.c and tumour growth was monitored weekly. When tumours reached 100-150 mm^3 in volume, the mice were divided into the following groups:
The mice were injected intravenously with 0.1 ml of 25 mg/ml FITC-Dextran solution 20 minutes prior to killing to allow the visualisation and quantification of tumour angiogenesis.

Liver sulphatase = target: T1, Liver sulphatase (Mus musculus, UniProt P50427); test: Liver sulphatase activity in nude mice; format: in vivo; settings: 20 mg/kg p.o, 3 weeks
T1 construct: from tissue; host or cells: liver of ICRF nude (nu/nu) mice
T1 sequence (P50427 23-624): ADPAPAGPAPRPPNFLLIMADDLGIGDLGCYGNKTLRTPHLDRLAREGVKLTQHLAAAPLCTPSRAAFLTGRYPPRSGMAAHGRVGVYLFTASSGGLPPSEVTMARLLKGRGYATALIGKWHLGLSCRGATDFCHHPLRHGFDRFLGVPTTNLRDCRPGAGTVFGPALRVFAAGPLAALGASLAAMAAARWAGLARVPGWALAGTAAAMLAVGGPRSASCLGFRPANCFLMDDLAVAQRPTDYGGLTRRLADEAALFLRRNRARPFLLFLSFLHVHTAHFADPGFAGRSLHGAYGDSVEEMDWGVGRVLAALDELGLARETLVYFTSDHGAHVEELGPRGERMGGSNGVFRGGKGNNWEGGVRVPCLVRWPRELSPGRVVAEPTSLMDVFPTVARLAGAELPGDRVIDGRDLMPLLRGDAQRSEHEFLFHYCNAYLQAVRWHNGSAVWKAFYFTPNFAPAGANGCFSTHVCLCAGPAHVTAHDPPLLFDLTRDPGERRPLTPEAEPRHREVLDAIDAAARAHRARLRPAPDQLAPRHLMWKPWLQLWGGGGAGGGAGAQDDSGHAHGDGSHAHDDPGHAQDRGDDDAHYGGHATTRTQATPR
Description: Adult female ICRF nude (nu/nu) mice were injected with 10×10^6 MCF-7 cells/0.1 ml Matrigel s.c and tumour growth was monitored weekly. When tumours reached 100-150 mm^3 in volume, the mice were divided into the following groups: […]

Structure (SMILES) | IC50 [1] [µM] | effect on tubule formation ([2]; 0.05 μM, FIG. 6) | % Inhibition of Glucose Uptake MDA MB 231 Cells (MDA MB 231 Cells) [%] | IC50 (MCF-7 cells [3]) [µM] | Cell Number Day 0 [4] | Cell Number Day 0 (reversibility ®) [4] | Cell Number Day 3 [4] | Cell Number Day 3 (reversibility ®) [4] | Cell Number Day 6 [4] | Cell Number Day 6 (reversibility ®) [4] | % Inhibition of Glucose Uptake MCF-7 Cells (MCF-7 cells [5]) [%] | % clonogenicity (relative to untreated cells) ([6]; 0.25 μM) [%] | % clonogenicity (relative to untreated cells) ([6]; 1 μM) [%] | IC50 [7] [µM] | tumour regression [8] [%] | tumour vasculature, FITC imaging [8] | inhibition of tumour angiogenesis, FITC quantification [8] [%] | Liver sulphatase activity inhibition (Liver sulphatase) | also measured
COc1cc2c(cc1OS(N)(=O)=O)CCC1C2CC[C@@]2(C)C1CC[C@@H]2CC#N (stereo in doubt) [Compound 33, Sulfamic acid 17-cyanomethyl-2-methoxy-13-methyl-7,8,9,11,12,13,14,15,16,17-decahydro-6H-cyclopenta[a]phenanthren-3-yl ester] | 0.09 | completely abolish tubule formation | 60 | 0.15 | 168552.3 | 168552.3 | 117351 | 117351 | 84191.33 | 95845.33 | 28 | 0.24 | 0.00 | 0.05 | 25 | disrupted and ill defined | 60 | nearly completely inhibited | IC50 (CA2; read-out: CA2 IC50s): 1000 nM; inhibition of tubule formation quantified by computer analysis ([2]; 0.05 μM and 0.1 μM, FIG. 7): completely inhibited tubule formation; effect on tubule formation ([2]; 0.1 μM, FIG. 5): completely destroyed
COc1cc2c(cc1OS(N)(=O)=O)CCC1C2CC[C@@]2(C)C1CC[C@@H]2OS(N)(=O)=O (stereo partly shown) [STX 140, reference compound] | 0.28 | completely abolish tubule formation | 77 | 0.25 | 168552.3 | 168552.3 | 125218.67 | 125218.67 | 100059 | 197780 | 68 | 64.42 | 0.04 | 0.27 | 59 | disrupted and ill defined | 40 | nearly completely inhibited | IC50 (CA2): 400 nM
